Experimental data as given in PMC1459859, “Display of a thermostable lipase on the surface of a solvent-resistant bacterium, Pseudomonas putida GM730, and its applications in whole-cell biocatalysis” (BMC Biotechnology, 2006).

Experiments:
[1] = target: T1, TliA (thermostable lipase), displayed as INPNC-TliA (Pseudomonas fluorescens, UniProt Q9ZG91); experiment: whole-cell chiral resolution, HPLC; assay type: cell-based; settings: INPNC-TliA displayed on P. putida GM730/pJHC13 cells; 50 mM racemic substrate; two-phase PBS-isooctane; 25 °C; 72 h; R-selective
T1 sequence (Q9ZG91 1-476): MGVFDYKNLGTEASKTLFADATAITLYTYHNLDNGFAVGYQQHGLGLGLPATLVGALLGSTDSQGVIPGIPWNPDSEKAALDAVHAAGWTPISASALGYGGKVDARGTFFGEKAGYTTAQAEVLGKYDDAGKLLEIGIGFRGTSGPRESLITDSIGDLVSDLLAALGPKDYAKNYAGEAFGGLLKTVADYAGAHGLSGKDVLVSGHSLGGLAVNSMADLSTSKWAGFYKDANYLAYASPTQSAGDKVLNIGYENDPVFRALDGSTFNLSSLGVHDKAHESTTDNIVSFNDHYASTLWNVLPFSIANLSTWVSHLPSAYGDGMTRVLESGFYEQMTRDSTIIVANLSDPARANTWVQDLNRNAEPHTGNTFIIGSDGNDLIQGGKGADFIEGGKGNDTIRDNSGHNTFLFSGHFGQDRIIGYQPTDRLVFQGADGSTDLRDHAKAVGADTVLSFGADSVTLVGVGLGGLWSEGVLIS

[2] = target: T1, TliA (thermostable lipase), displayed as INPNC-TliA; experiment: whole-cell lipase activity, spectrophotometric; assay type: cell-based; settings: INPNC-TliA displayed on P. putida GM730/pJHC13 cells; PBS-washed; induced with 1 mM IPTG

Row | SMILES | whole-cell chiral resolution, HPLC [1] | whole-cell lipase activity, spectrophotometric [2]
1 | CC(C(=O)Oc1ccc([N+](=O)[O-])cc1)c1ccccc1 (racemic) [4-nitrophenyl 2-phenylpropionate] | enantiomeric excesses of the surviving p-nitrophenyl 2-phenylpropionate and the product (R) 2-phenylpropionic acid | 
2 | CCCCCCCCCCCCCCCC(=O)Oc1ccc([N+](=O)[O-])cc1 [p-nitrophenyl palmitate] |  | whole-cell enzyme activities were measured with p-nitrophenyl palmitate (pNPP), which does not enter the cells
